From patent publication US20090156639A1, “COMPOSITIONS AND METHODS OF TREATMENT USING L-TYPE CALCIUM CHANNEL BLOCKERS AND CHOL[…]” (priority 2003, published 2009)
Counter-ions that a name gives are not always drawn.

System: young adult male Sprague-Dawley rats
Assay: Novel Object Recognition Memory test (hippocampus-dependent nonspatial memory task)
Assay type: in vivo, rat
Conditions: for approximate optimum dosage in the Novel Object Recognition Memory test: from dose response data (FIGS. 1, 2, 4); for % Exploration of the novel object: prior to training, test 24 hours after training, n=6
Procedure: The general procedure for compound evaluation in Novel Object Recognition Memory (Hippocampus-Dependent Nonspatial Memory Task) is as follows: • 1. The animals are transported in their home cages from the vivarium to a dimly lit (5-6 lux) training room and acclimated for approximately 45 minutes. • 2. The animals are than individually placed in the training/testing environment (an opaque plastic chamber, 61 cm×42 cm×37 cm with bedding on the floor) for 5 minutes of habituation. Thereafter, the animals are returned to their home cage.
They remained in the testing room for approximately 15 minutes after the last animal is habituated before being returned to their colony room.
For the memory test, the objects to be discriminated are a goblet (11 cm in height, 6.5 cm in diameter) and a conical candlestick holder (11 cm in height, 6 cm in diameter) made of green, nontransparent glass. There are multiple copies of each object used for training and testing. Object pairs are randomly assigned within and between conditions. For training, two identical objects are placed 8 cm from the sides of the two short walls of the chamber. • 4. The day after initial habituation, the animals are returned to the testing room and acclimated as described in Step 1. Drug and/or vehicle is then administered according to experimental design (i.p.: 263/8-gauge needle; or p.o.: 18-gauge needle) at an interval ranging from 24 hours prior to 24 hours post-training. The training procedure is begun by placing the animal, nose facing the wall, into the empty chamber at a position in the center of a long wall. After 1 minute of re-habituation, the animal is removed from the chamber and placed in a holding cage (45 cm×26 cm×20 cm) with bedding for a period of 10 seconds. During this delay, the training objects are placed in the chamber. The animal is then returned to the chamber for a 15-minute period of exploration. The animal's movements are observed via cameral located over the chamber and are recorded on videotape. After the training session, the animal is returned to its home cage. The objects are cleaned with an 85% EtOH solution. The animals remain in the testing room for approximately 15 minutes after the last animal is trained before being returned to their colony room. • 5. Following a delay interval (1 hour to several weeks, but usually 24 hours), the animals are again returned to the testing room and acclimated as described in Step 1. After this, individual animals are re-habituated to the empty chamber for 1 minute as was described in Step 4. For the test, two new objects are placed in the chamber: one is identical to the objects used during training, while the other is novel. The position of the novel object is randomized for each animal. The animals are allowed to actively explore until they accumulate a total of 60 seconds of exploration. During the test period, the amount of time spent exploring either the novel or the familiar object is recorded using R. E. Clark's V.P.C. program, which also signals when 60 seconds of exploration has been accumulated. The animal's movements are observed via a camera located over the chamber and are recorded on videotape. Any animal that fails to explore either object or to reach the set criterion within 15 minutes is excluded from analysis. After the test, the animals are returned to their home cage, and then to the colony room. The objects are cleaned with an 85% EtOH solution. • 6.

SMILES | approximate optimum dosage in the Novel Object Recognition Memory test [mg/kg] | % Exploration of the novel object (donepezil 0.05 mg/kg i.p. alone (suboptimal dose) plus vehicle) [%] | % Exploration of the novel object (Compound A 1.00 mg/kg i.p. alone (suboptimal dose) plus vehicle) [%]
CC12CC3CC(C)(C1)CC(N)(C3)C2 [memantine] | ~1.0 | – | –
COc1cc2c(cc1OC)C(=O)C(CC1CCN(Cc3ccccc3)CC1)C2 (racemic) [donepezil, (+/−) 2,3-dihydro-5,6-dimethoxy-2-[[1-(phenylmethyl)-4-piperidinyl]methyl]-IH-indene-1-one hydrochloride] | ~0.5 | 50 | –
COCCOC(=O)C1=C(C)NC(C)=C(C(=O)OC(C)C)C1c1cccc(C#N)c1Cl (single isomer, unassigned; (+)) [Compound A, (+) isopropyl 2-methoxyethyl 4-(2-chloro-3-cyano-phenyl)-1,4-dihydro-2,6-dimethylpyridine-3,5-dicarboxylate] | ~10 | – | 50
